The values below come from patent US8846687B2, “Pyrazine compounds as PI3 kinase inhibitors” (Novartis AG, priority 2008, dated 2014).

pIC50: −log10 of the molar value.

Chain of recombinant GST-p110γ (human PI 3-Kγ) (P48736 38-1102): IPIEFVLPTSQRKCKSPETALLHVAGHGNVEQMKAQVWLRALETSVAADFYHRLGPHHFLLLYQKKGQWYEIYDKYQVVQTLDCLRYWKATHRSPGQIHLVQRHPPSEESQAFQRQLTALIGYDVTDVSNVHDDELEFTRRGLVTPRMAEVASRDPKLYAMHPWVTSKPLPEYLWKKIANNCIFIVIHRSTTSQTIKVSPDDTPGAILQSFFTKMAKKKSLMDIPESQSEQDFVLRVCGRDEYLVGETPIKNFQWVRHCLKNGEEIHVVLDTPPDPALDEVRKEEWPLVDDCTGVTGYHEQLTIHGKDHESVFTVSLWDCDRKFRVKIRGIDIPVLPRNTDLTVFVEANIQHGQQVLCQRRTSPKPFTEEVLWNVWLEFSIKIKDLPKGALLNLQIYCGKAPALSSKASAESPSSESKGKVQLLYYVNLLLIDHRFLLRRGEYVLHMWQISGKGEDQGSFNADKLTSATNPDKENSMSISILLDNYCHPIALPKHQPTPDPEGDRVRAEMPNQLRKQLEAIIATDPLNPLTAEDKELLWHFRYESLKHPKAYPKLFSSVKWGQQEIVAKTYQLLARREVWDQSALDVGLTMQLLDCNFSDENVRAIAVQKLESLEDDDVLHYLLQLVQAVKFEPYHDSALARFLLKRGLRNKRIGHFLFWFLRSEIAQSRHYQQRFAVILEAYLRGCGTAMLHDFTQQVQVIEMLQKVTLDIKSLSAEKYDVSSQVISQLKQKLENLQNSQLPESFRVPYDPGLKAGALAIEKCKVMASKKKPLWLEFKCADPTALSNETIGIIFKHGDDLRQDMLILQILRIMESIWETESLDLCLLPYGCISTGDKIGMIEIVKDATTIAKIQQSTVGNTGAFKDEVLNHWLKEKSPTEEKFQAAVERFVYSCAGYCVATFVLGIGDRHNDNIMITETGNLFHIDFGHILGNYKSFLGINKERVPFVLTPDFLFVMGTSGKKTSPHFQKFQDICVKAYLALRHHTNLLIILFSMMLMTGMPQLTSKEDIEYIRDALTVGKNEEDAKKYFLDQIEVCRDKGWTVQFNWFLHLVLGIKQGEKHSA

This assay concerns the target recombinant GST-p110γ (human PI 3-Kγ) (Homo sapiens, UniProt P48736). As to the kind of experiment: PI 3-kinase gamma in vitro kinase assay (Scintillation Proximity Assay).
Protocol: To express the recombinant protein, Sf9 (Spodoptera frugiperda 9) insect cells are routinely maintained at densities between 3×10^5 and 3×10^6 cells/ml in serum containing TNMFH medium (Sigma). Sf9 cells, at a density of 2×10^6 are infected with human GST-PI 3-KγΔ34 baculovirus at a multiplicity of infection (m.o.i.) of 1 for 72 hours. The infected cells are harvested by centrifugation at 1400 g for 4 minutes at 4° C. and the cell pellets are frozen at −80° C. […] Sf9 cells (1×10^9) are resuspended in 100 ml cold (4° C.) lysis buffer (50 mM Tris-HCl pH 7.5, 1% Triton X-100, 150 mM NaCl, 1 mM NaF, 2 mM DTT and protease inhibitors. Cells are incubated on ice for 30 minutes then centrifuged at 15000 g for 20 minutes at 4° C. Purification of the supernatant sample is carried out at 4° C. by affinity chromatography using SEPHAROSE™ agarose gel beads coupled to glutathione (from Amersham Pharmacia Biotech). A cell lysate/GST resin ratio of 50:1 is used. The GST resin is firstly pre-rinsed to remove ethanol preservative and then equilibrated with lysis buffer. Cell lysate (supernatant) is added (usually as 50 ml lysate to 1 ml GST resin in 50 ml tubes) and gently rotated on a mixer at 4° C. for 2-3 hours. The unbound flow through sample is collected by centrifugation at 1000 g for 5 minutes at 4° C. using a DENLEY™ centrifuge. The 1 ml GST resin containing bound material is transferred to a 15 ml FALCON™ centrifuge tube for subsequent washing and elution steps. Firstly a series of 3 cycles of washings (mixing by gentle inversion) is performed with 15 ml ice cold wash Buffer A (50 mM Tris-HCl pH 7.5, 1% Triton X-100, 2 mM DTT) interspersed with centrifugation at 1000 g for 5 minutes at 4° C. A final single wash step is performed with 15 ml ice cold wash Buffer B (50 mM Tris-HCl pH 7.5, 2 mM DTT) and then centrifuged at 1000 g for 5 minutes at 4° C. The washed GST resin is finally eluted with 4 cycles of 1 ml ice cold elution buffer (50 mM Tris-HCl pH 7.5, 10 mM reduced glutathione, 2 mM DTT, 150 mM NaCl, 1 mM NaF, 50% ethylene glycol and protease inhibitors) interspersed with centrifugation at 1000 g for 5 minutes at 4° C. Samples are aliquoted and stored at −20° C.
An in vitro kinase assay was established that measures the transfer of the terminal phosphate of adenosine triphosphate to phosphatidylinositol. The kinase reaction is performed in a white 96 well microtitre plate as a Scintillation Proximity Assay. Each well contains 10 μl test compound in 5% dimethylsulfoxide and 20 μl assay mix (40 mM Tris, 200 mM NaCl, 2 mM ethyleneglycol-aminoethyl-tetraacetic acid (EGTA), 15 μg/ml phosphatidylinositol, 12.5 μM adenosine triphosphate (ATP), 25 mM MgCl2, 0.1 μCi [^33P]ATP). The reaction is started by the addition of 20 μl of enzyme mix (40 mM Tris, 200 mM NaCl, 2 mM EGTA containing recombinant GST-p110γ).
Turning to `Nc1ncc(-c2cccc(C(=O)O)c2)nc1C(=O)c1cccnc1` [Example 49, 3-[5-Amino-6-(pyridine-3-carbonyl)-pyrazin-2-yl]-benzoic acid], the pIC50 is 6.44.
Consider `Nc1ncc(-c2ccc(Cl)c(S(=O)(=O)Nc3ccccc3)c2)nc1C(=O)c1cccnc1` [Example 13, 5-[5-Smino-6-(pyridine-3-carbonyl)-pyrazin-2-yl]-2-chloro-N-phenyl-benzenesulfonamide], for which the pIC50 is 7.92.
The figure for `Nc1ncc(-c2cc(S(=O)(=O)N3CCOCC3)c(F)cc2F)nc1C(=O)c1cccnc1` [Example 74, {3-Amino-6-[2,4-difluoro-5-(morpholine-4-sulfonyl)-phenyl]-pyrazin-2-yl}-pyridin-3-yl-methanone] is 6.90; for `Nc1ncc(-c2ccc(Cl)c(Cl)c2)nc1C(=O)c1ccc(CN2CCCCC2)cc1` [Example 86, [3-Amino-6-(3,4-dichloro-phenyl)-pyrazin-2-yl]-(4-piperidin-1-ylmethyl-phenyl)-methanone] it is 6.12; for `Nc1ncc(-c2cnc(N)c(C(=O)c3cccnc3)n2)cc1C(F)(F)F` [Example 1, [3-Amino-6-(6-amino-5-trifluoromethyl-pyridin-3-yl)-pyrazin-2-yl]-pyridiny-3-yl-methanone] it is 7.48.
In the case of `Nc1ncc(-c2ccc3c(c2)OCO3)nc1C(=O)c1cccnc1` [Example 35, (3-Amino-6-benzo[1,3]dioxol-5-yl-pyrazin-2-yl)-pyridin-3-yl-methanone], the pIC50 was 6.23.
For `Nc1cccc(-c2cnc(N)c(C(=O)c3cccnc3)n2)c1` [Example 51, [3-Amino-6-(3-amino-phenyl)-pyrazin-2-yl]-pyridin-3-yl-methanone], the pIC50 was 6.41.
`Nc1ncc(-c2cncc(C(=O)N3CCOCC3)c2)nc1C(=O)c1cccnc1` [Example 28]: the pIC50 was 6.43.
`Nc1ncc(-c2cc(C(F)(F)F)cc(S(N)(=O)=O)c2)nc1C(=O)c1cccnc1` [Example 67, 3-[5-Amino-6-(pyridine-3-carbonyl)-pyrazin-2-yl]-5-trifluoromethyl-benzenesulfonamide]: the pIC50 was 6.37.
